{
  "source": "patent US9250238B2",
  "about": "“Pathogen detection” (priority 2010, dated 2016)",
  "key": {"Y. enterocolitica": {"system": "Y. enterocolitica", "experiment": "Capture on FOB-BSA micropatterned chips, darkfield and FFT", "type": "binding, Yersinia enterocolitica", "conditions": "NHS-activated codelink slide, 10^8 cfu/ml"}, "peanut lectin": {"target": "T1, peanut lectin (Arachis hypogaea, UniProt P02872)", "T1 construct": "purchased Sigma (St. Louis, Mo.)", "T1 sequence (P02872 24-273)": "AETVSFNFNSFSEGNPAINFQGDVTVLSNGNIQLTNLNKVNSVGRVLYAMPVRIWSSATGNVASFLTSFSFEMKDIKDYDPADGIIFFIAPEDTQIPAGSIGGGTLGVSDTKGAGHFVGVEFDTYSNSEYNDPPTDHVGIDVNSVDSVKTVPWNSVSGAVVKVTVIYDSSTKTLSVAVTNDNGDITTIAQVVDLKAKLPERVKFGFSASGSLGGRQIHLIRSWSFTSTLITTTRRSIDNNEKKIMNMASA", "experiment": "Flow immunocytometry of peanut lectin binding to lactose-conjugated microspheres", "experimental": "Bishydrazide glycoconjugates can be directly attached onto surface-active substrates for the selective capture of lectins and subsequent binding immunoassays. For example, lactosebishydrazide 6 was attached onto NHS-activated latex microspheres in order to measure the binding affinity of peanut lectin by flow immunocytometry (Kd)) 50 nM), using a FITC-labeled secondary antibody for fluorescence detection (FIGS. 12A and 13). […] However, in some cases the use of carrier proteins such as BSA may be more convenient for surface functionalization by simple physisorption.\nFor flow cytometry, carboxylic acid functionalized microspheres were conjugated to lactose-bishydrazide 6 via standard EDC coupling for 16 hours at room temperature, followed by multiple washes with PBS. The lactose-conjugated microspheres were dispersed in PBS (1.2 mL) and split into several Eppendorf tubes, which were incubated with increasing concentrations of peanut lectin in the presence or absence of 100-fold excess lactose. After incubating for 2 hours at room temperature, tubes were rinsed and subjected to sequential incubation with anti-lectin rabbit IgG and anti-rabbit FITC IgG as described above. The microspheres were then analyzed for fluorescent immunolabeling using a flow cytometer (Cytomics F500, Beckman Coulter, 10^4 microspheres/sample). […]"}, "Staphylococcus aureus": {"system": "Staphylococcus aureus", "experiment": "PathoChip detection sensitivity", "type": "binding", "conditions": "ligand conjugated to BSA"}, "Pseudomonas aeruginosa [1]": {"system": "Pseudomonas aeruginosa", "experiment": "PathoChip detection sensitivity", "type": "binding", "conditions": "ligand conjugated to BSA"}, "Streptococcus pneumonaie": {"system": "Streptococcus pneumonaie", "experiment": "PathoChip detection sensitivity", "type": "binding", "conditions": "ligand conjugated to BSA"}, "Vibrio cholerae": {"system": "Vibrio cholerae", "experiment": "PathoChip detection sensitivity", "type": "binding", "conditions": "ligand conjugated to BSA"}, "Pseudomonas aeruginosa [2]": {"system": "Pseudomonas aeruginosa", "experiment": "Capture of Pseudomonas on glycan-patterned substrates, darkfield and FFT", "type": "binding", "text": "A similar approach was used to generate photopatterned arrays of the pulmonary trisaccharide and 2′-fucosyllactose on BSA-coated substrates, using glycan-bishydrazide-ANB conjugates 16 and 17, respectively. These micropatterned substrates were exposed to the opportunistic pathogen Pseudomonas aeruginosa at 10^6-10^8 cfu/mL, then washed and imaged by optical darkfield microscopy to visualize patterns of glycan-immobilized bacteria in a label-free manner (FIGS. 15-17). […] Furthermore, only live Pseudomonas were captured by the trisaccharide ligands; exposing the bacteria to UV irradiation for 2 hours prior to their introduction resulted again in no observable pattern (FIG. 18). […]\nGlycan-bishydrazide conjugates could also be patterned onto substrates by microcontact printing (μCP), a well-established “soft lithography” technique based on microfabricated polydimethylsiloxane (PDMS) stamps for the physical transfer of organic or biomolecular ligands, including glycans (Kumar and Whitesides, Appl. Phys. Lett. 1993, 63:2002-2004; Bernard et al., Adv. Mater. 2000, 12:1067-1070; Inerowicz et al., Langmuir 2002, 18:5263-5268; Godula et al., Angew. Chem., Int. Ed 2009, 48:4973-4976; Wendeln et al., Langmuir 2010, 26:4933-4940). […] The substrates were blocked then exposed for 1 hour to Pseudomonas at 10^2-10^8 cfu/mL, then evaluated for evidence of patterned pathogen capture (FIGS. 19, 19A). […]"}, "Chlamydia trachomatis": {"system": "Chlamydia trachomatis", "experiment": "PathoChip detection sensitivity", "type": "binding", "conditions": "ligand conjugated to BSA"}, "Shigella spp.": {"system": "Shigella spp.", "experiment": "PathoChip detection sensitivity", "type": "binding", "conditions": "ligand conjugated to BSA"}, "Mycobacterium smegmatis": {"system": "Mycobacterium smegmatis", "experiment": "PathoChip detection sensitivity", "type": "binding", "conditions": "ligand conjugated to BSA"}, "Acinetobacter baumanii": {"system": "Acinetobacter baumanii", "experiment": "PathoChip detection sensitivity", "type": "binding", "conditions": "ligand conjugated to BSA"}},
  "data": [
    {"molecule": "CC(=O)N([O-])CCCCCNC(=O)CCC(=O)N([O-])CCCCCNC(=O)CCC(=O)N([O-])CCCCCN.[Fe+3]", "note": "[FOB, ferrioxamine]", "values": [
      {"measurement": "bacteria binding with ligand attached directly, no BSA linker", "setting": "Y. enterocolitica", "value": "less bacteria binding onto the pattern than in the presence of BSA"}
    ]},
    {"molecule": "NNC(=O)COCCOCCOCCOCCOCCOCCOCC(=O)NN[C@@H]1OC(CO)[C@@H](OC2OC(CO)[C@H](O)[C@H](O)[C@@H]2O)[C@H](O)C1O", "note": "(stereo partly shown) [conjugate 6, Hexa(ethylene glycol)-linked lactose-bishydrazide conjugate]", "values": [
      {"measurement": "Kd", "setting": "peanut lectin; 6 attached to NHS-activated latex microspheres, FITC secondary antibody", "value": 0.05, "unit": "µM"},
      {"measurement": "increase of Kd in competition assay", "setting": "peanut lectin; against 1 mM lactose", "value": 10, "unit": "fold"}
    ]},
    {"molecule": "Hemin", "values": [
      {"measurement": "sensitivity, Staphylococcus aureus", "setting": "Staphylococcus aureus", "value": "1E3", "unit": "cfu/mL"},
      {"measurement": "sensitivity, Pseudomonas aeruginosa", "setting": "Pseudomonas aeruginosa [1]", "value": "1E3", "unit": "cfu/mL"},
      {"measurement": "sensitivity, Streptococcus pneumonaie", "setting": "Streptococcus pneumonaie", "value": "1E5", "unit": "cfu/mL"},
      {"measurement": "sensitivity, Vibrio cholerae", "setting": "Vibrio cholerae", "value": "1E6/1E6 cfu/mL"}
    ]},
    {"molecule": "Hexa(ethylene glycol)-Linked 2′-Fucosyllactose-Bishydrazide Conjugate [conjugate 8]", "values": [
      {"measurement": "avidity of Pseudomonas cultures relative to pulmonary trisaccharide 7", "setting": "Pseudomonas aeruginosa [2]", "value": "much lower avidity"}
    ]},
    {"molecule": "heparin", "values": [
      {"measurement": "sensitivity, Staphylococcus aureus", "setting": "Staphylococcus aureus", "value": "1E6", "unit": "cfu/mL"},
      {"measurement": "sensitivity, Pseudomonas aeruginosa", "setting": "Pseudomonas aeruginosa [1]", "value": "1E6", "unit": "cfu/mL"},
      {"measurement": "sensitivity, Chlamydia trachomatis", "setting": "Chlamydia trachomatis", "value": "1E3", "unit": "cfu/mL"},
      {"measurement": "sensitivity, Chlamydia trachomatis", "setting": "Chlamydia trachomatis; listed as Heparin", "value": "10^3 cfu/mL"},
      {"measurement": "sensitivity, Shigella spp.", "setting": "Shigella spp.", "value": "1E6+ cfu/mL"},
      {"measurement": "sensitivity, Vibrio cholerae", "setting": "Vibrio cholerae", "value": "1E6+ cfu/mL"},
      {"measurement": "sensitivity, Mycobacterium smegmatis", "setting": "Mycobacterium smegmatis", "value": "1E6", "unit": "cfu/mL"},
      {"measurement": "sensitivity, Acinetobacter baumanii", "setting": "Acinetobacter baumanii", "value": "1E6", "unit": "cfu/mL"}
    ]}
  ]
}
